Measured values published in patent US10111874B2, “Combination therapies for treatment of cancer” (Araxes Pharma LLC, priority 2014, dated 2018).

target: T1, KRAS G12C 1-169, his-tagged protein, GDP-loaded (Homo sapiens, UniProt P01116, G12C); assay: Biochemical assay: covalent binding to KRAS G12C analyzed by mass spectrometry; conditions: compounds 48-246, measured at 2 h; note: test concentration or dose not given here
T1 construct: KRAS G12C 1-169, his-tagged protein, GDP-loaded
T1 sequence (P01116 1-169 isoform P01116-2 G12C): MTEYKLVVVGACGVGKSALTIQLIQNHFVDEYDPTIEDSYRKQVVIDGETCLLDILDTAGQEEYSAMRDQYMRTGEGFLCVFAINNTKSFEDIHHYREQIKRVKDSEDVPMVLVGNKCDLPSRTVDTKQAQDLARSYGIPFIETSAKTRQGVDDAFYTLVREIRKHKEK

Row | Compound | Binding %
1 | C=CC(=O)N1CCN(c2ncnc3cc(-c4ccc(Cl)cc4)c(Cl)cc23)CC1 [Compound I-78, 1-(4-(6-chloro-7-(4-chlorophenyl)quinazolin-4-yl)piperazin-1-yl)prop-2-en-1-one] | + (+indicates binding activity from 5% to 25%)
2 | C=CC(=O)N1CCN(c2ncnc3cc(-c4cccc(CC)c4)c(Cl)cc23)CC1 [Compound I-79, 1-(4-(6-chloro-7-(3-ethylphenyl)quinazolin-4-yl)piperazin-1-yl)prop-2-en-1-one] | + (+indicates binding activity from 5% to 25%)
3 | C=CC(=O)N1CCN(c2ncnc3cc(N4CCNCC4)c(Cl)cc23)CC1 [Compound I-80, 1-(4-(6-chloro-7-(piperazin-1-yl)quinazolin-4-yl)piperazin-1-yl)prop-2-en-1-one] | + (+indicates binding activity from 5% to 25%)
4 | C=CC(=O)N1CCN(c2ncnc3cc(-c4ccccc4F)c(Cl)cc23)CC1 [Compound I-81, 1-(4-(6-chloro-7-(2-fluorophenyl)quinazolin-4-yl)piperazin-1-yl)prop-2-en-1-one] | +++ (+++indicates binding activity greater than 50% and up to 75%)
5 | CN(C)C/C=C/C(=O)N1CCN(c2ncnc3cc(-c4ccccc4)c(Cl)cc23)CC1 [Compound I-82, (E)-1-(4-(6-chloro-7-phenylquinazolin-4-yl)piperazin-1-yl)-4-(dimethylamino)but-2-en-1-one] | + (+indicates binding activity from 5% to 25%)
6 | C=CC(=O)N1CCN(c2ncnc3cc(-c4ccc(F)cc4)c(Cl)cc23)CC1 [Compound I-83, 1-(4-(6-chloro-7-(4-fluorophenyl)quinazolin-4-yl)piperazin-1-yl)prop-2-en-1-one] | ++ (++indicates binding activity greater than 25% and up to 50%)
7 | C=CC(=O)N1CCN(c2ncnc3cc(-c4cccc(F)c4)c(Cl)cc23)CC1 [Compound I-84, 1-(4-(6-chloro-7-(3-fluorophenyl)quinazolin-4-yl)piperazin-1-yl)prop-2-en-1-one] | ++ (++indicates binding activity greater than 25% and up to 50%)
8 | C=CC(=O)N1CCN(c2ncnc3cc(-c4ccccc4)c(Cl)cc23)CC1CC#N (centres unmarked) [Compound I-85, 2-(1-acryloyl-4-(6-chloro-7-phenylquinazolin-4-yl)piperazin-2-yl)acetonitrile] | +++ (+++indicates binding activity greater than 50% and up to 75%)
9 | C=CC(=O)N1CCN(c2ncnc3cc(-c4ccccc4)c(C4CC4)cc23)CC1 [Compound I-86, 1-(4-(6-cyclopropyl-7-phenylquinazolin-4-yl)piperazin-1-yl)prop-2-en-1-one] | + (+indicates binding activity from 5% to 25%)
10 | C=CC(=O)N1CCN(c2ncnc3cc(-c4ccccc4)ccc23)CC1 [Compound I-87] | + (+indicates binding activity from 5% to 25%)
11 | C=CC(=O)N1CCN(c2nccc3cc(-c4ccccc4)c(Cl)cc23)CC1 [Compound I-88, 1-(4-(7-chloro-6-phenylisoquinolin-1-yl)piperazin-1-yl)prop-2-en-1-one] | + (+indicates binding activity from 5% to 25%)
12 | C=CC(=O)NC1CCN(c2ncnc3cc(-c4ccccc4)c(Cl)cc23)CC1 [Compound I-89, N-(1-(6-chloro-7-phenylquinazolin-4-yl)piperidin-4-yl)acrylamide] | + (+indicates binding activity from 5% to 25%)
13 | C=CC(=O)N1CCN(c2ncnc3cc(-c4cccnc4)c(Cl)cc23)CC1 [Compound I-90, 1-(4-(6-chloro-7-(pyridin-3-yl)quinazolin-4-yl)piperazain-1-yl)prop-2-en-1-one] | + (+indicates binding activity from 5% to 25%)
14 | C=CC(=O)N1CCN(c2ccnc3cc(-c4ccccc4)c(Cl)cc23)CC1 [Compound I-91, 1-(4-(6-chloro-7-phenylquinolin-4-yl)piperazin-1-yl)prop-2-en-1-one] | ++ (++indicates binding activity greater than 25% and up to 50%)
15 | C=CC(=O)N1CCN(c2ncnc3cc(-c4ccccn4)c(Cl)cc23)CC1 [Compound I-92, 1-(4-(6-chloro-7-(pyridin-2-yl)quinazolin-4-yl)piperazin-1-yl)prop-2-en-1-one] | + (+indicates binding activity from 5% to 25%)
16 | C=CC(=O)N1CCN(c2ncnc3cc(-c4ccccc4)c(CC)cc23)CC1 [Compound I-93, 1-(4-(6-ethyl-7-phenylquinazolin-4-yl)piperazin-1-yl)prop-2-en-1-one] | + (+indicates binding activity from 5% to 25%)
17 | C=CC(=O)N1CCN(c2nc(OC)nc3cc(-c4ccccc4)c(Cl)cc23)CC1 [Compound I-94, 1-(4-(6-chloro-2-methoxy-7-phenylquinazolin-4-yl)piperazin-1-yl)prop-2-en-1-one] | ++ (++indicates binding activity greater than 25% and up to 50%)
18 | C=CC(=O)N1CCN(c2nc(C)nc3cc(-c4ccccc4)c(Cl)cc23)CC1 [Compound I-95, 1-(4-(6-chloro-2-methyl-7-phenylquinazolin-4-yl)piperazin-1-yl)prop-2-en-1-one] | ++ (++indicates binding activity greater than 25% and up to 50%)

Row | Compound | Binding %
19 | C=CC(=O)N1CC(Nc2ncnc3cc(-c4ccccc4)c(Cl)cc23)C1 [Compound I-96, 1-(3-(6-chloro-7-phenylquinazolin-4-ylamino)azetidin-1-yl)prop-2-en-1-one] | + (+indicates binding activity from 5% to 25%)
20 | C=CC(=O)N1CCN(c2ncnc3cc(-c4ccccc4OC)c(Cl)cc23)CC1 [Compound I-97, 1-(4-(6-chloro-7-(2-methoxyphenyl)quinazolin-4-yl)piperazin-1-yl)prop-2-en-1-one] | ++ (++indicates binding activity greater than 25% and up to 50%)
21 | C=CC(=O)N1CCN(c2ncnc3cc(-c4ccccc4C(N)=O)c(Cl)cc23)CC1 [Compound I-98, 2-(4-(4-acryloylpiperazin-1-yl)-6-chloroquinazolin-7-yl)benzamide] | + (+indicates binding activity from 5% to 25%)
22 | C=CC(=O)N1CCN(c2ncnc3cc(-c4ccccc4C(C)C)c(Cl)cc23)CC1 [Compound I-99, 1-(4-(6-chloro-7-(2-isopeopylphenyl)quinazolin-4-yl)piperazin-1-yl)prop-2-en-1-one] | +++ (+++indicates binding activity greater than 50% and up to 75%)
23 | C=CC(=O)N1CCN(c2ncnc3cc(-c4ccccc4C(F)(F)F)c(Cl)cc23)CC1 [Compound I-100, 1-(4-(6-chloro-7-(2-(trifluoromethyl)phenyl)quinazolin-4-yl)piperazin-1-yl)prop-2-en-1-one] | +++ (+++indicates binding activity greater than 50% and up to 75%)
24 | C=CC(=O)N1CCN(c2ncnc3cc(-c4cc(Cl)ccc4Cl)c(Cl)cc23)CC1 [Compound I-101, 1-(4-(6-chloro-7-(2,5-dichlorophenyl)quinazolin-4-yl)piperazin-1-yl)prop-2-en-1-one] | +++ (+++indicates binding activity greater than 50% and up to 75%)
25 | C=CC(=O)N1CCN(c2ncnc3cc(-c4ccc(Cl)cc4Cl)c(Cl)cc23)CC1 [Compound I-102, 1-(4-(6-chloro-7-(2,4-dichlorophenyl)quinazolin-4-yl)piperazin-1-yl)prop-2-en-1-one] | +++ (+++indicates binding activity greater than 50% and up to 75%)
26 | C=CC(=O)N1CCN(c2ncnc3cc(-c4ccccc4COC)c(Cl)cc23)CC1 [Compound I-103, 1-(4-(6-chloro-7-(2-(methoxymethyl)phenyl)quinazolin-4-yl)piperazin-1-yl)prop-2-en-1-one] | ++ (++indicates binding activity greater than 25% and up to 50%)
27 | C=CC(=O)N1CCN(c2ncnc3cc(-c4ccccc4)c(Cl)cc23)CC1C(N)=O (centres unmarked) [Compound I-104, 1-acryloyl-4-(6-chloro-7-phenylquinazolin-4-yl)piperazine-2-carboxamide] | +++ (+++indicates binding activity greater than 50% and up to 75%)
28 | C=CC(=O)N1CCN(c2ncnc3cc(-c4ccccc4C#N)c(Cl)cc23)CC1 [Compound I-105, 2-(4-(4-acryloylpiperazin-1-yl)-6-chloroquinazolin-7-yl)benzonitrile] | + (+indicates binding activity from 5% to 25%)
29 | C=CC(=O)N1CCN(c2ncnc3cc(-c4ccccc4F)c(Cl)cc23)CC1CC#N (centres unmarked) [Compound I-106] | ++++ (++++indicates binding activity greater than 75%)
30 | C=CC(=O)N1CCN(c2ncnc3cc(-c4ccccc4CC)c(Cl)cc23)CC1CC#N (centres unmarked) [Compound I-107, 2-(1-acryloyl-4-(6-chloro-7-(2-ethylphenyl)quinazolin-4-yl)piperazin-2-yl)acetonitrile] | ++++ (++++indicates binding activity greater than 75%)
31 | C=CC(=O)N1CCN(c2ncnc3cc(-c4ccccc4CO)c(Cl)cc23)CC1 [Compound I-108, 1-(4-(6-chloro-7-(2-(hydroxymethyl)phenyl)quinazolin-4-yl)piperazin-1-yl)prop-2-en-1-one] | ++ (++indicates binding activity greater than 25% and up to 50%)
32 | C=CC(=O)N1CCN(c2ncnc3cc(-c4ccccc4Cl)c(Cl)cc23)CC1CC#N (centres unmarked) [Compound I-109, 2-(1-acryloyl-4-(6-chloro-7-(2-chlorophenyl)quinazolin-4-yl)piperazin-2-yl)acetonitrile] | ++++ (++++indicates binding activity greater than 75%)
33 | C=CC(=O)N1CCN(c2ncnc3cc(-c4ccc(Cl)cc4)c(Cl)cc23)CC1CC#N (centres unmarked) [Compound I-110, 2-(1-acryloyl-4-(6-chloro-7-(4-chlorophenyl)quinazolin-4-yl)piperazin-2-yl)acetonitrile] | +++ (+++indicates binding activity greater than 50% and up to 75%)
34 | C=CC(=O)N1CCN(c2ncnc3cc(-c4ccc(Cl)cc4)c(Cl)cc23)CC1CC#N (centres unmarked) [Compound I-111, 2-(1-acryloyl-4-(6-chloro-7-(4-chlorophenyl)quinazolin-4-yl)piperazin-2-yl)acetonitrile] | +++ (+++indicates binding activity greater than 50% and up to 75%)
35 | C=CC(=O)N1CCN(c2ncnc3cc(-c4ccc(F)cc4F)c(Cl)cc23)CC1 [Compound I-112, 1-(4-(6-chloro-7-(2,4-difluorophenyl)quinazolin-4-yl)piperazin-1-yl)prop-2-en-1-one] | +++ (+++indicates binding activity greater than 50% and up to 75%)
